Results on 2 molecules are retold here after paper PMC2713172 (Biochemistry, 2008).

For orientation: Km means the substrate concentration at which the rate is half of its maximum. In general, kcat refers to the number of substrate molecules converted per active site and unit of time at saturation.

Data set [1] has as its target T1, CYP2C9 F476W mutant (Homo sapiens, UniProt P11712, F476W).
The target of data set [2] is T2, CYP2C9 F100L mutant (Homo sapiens, UniProt P11712, F100L).
Data set [3] deals with T3, CYP2C9 F114W mutant (Homo sapiens, UniProt P11712, F114W).
The target of data set [4] is T3, CYP2C9 F114W mutant. This is another data set of the same source.
The target of data set [5] is T4, wild-type CYP2C9 (Homo sapiens, UniProt P11712). The settings on record: wild-type CYP2C9.
Data set [6] concerns the target T5, CYP2C9 F114L mutant (Homo sapiens, UniProt P11712, F114L).
For data set [7], the target named is T6, CYP2C9 F114L/F476L double mutant (Homo sapiens, UniProt P11712, F114L/F476L).
In data set [8] the target is T5, CYP2C9 F114L mutant. This is another data set of the same source.
Data set [9] addresses T4, wild-type CYP2C9.
For data set [10], the system named is CYP2C9. The settings on record: structure 1OG5; cited from earlier work.
The target in data set [11] is CYP2C9 F114W/F476W double mutant (Homo sapiens, UniProt P11712, F114W/F476W).
Data set [12] deals with T4, wild-type CYP2C9. This is another data set of the same source.
The target in data set [13] is T4, wild-type CYP2C9. The settings on record: WT.
Data set [14] deals with T7, CYP2C9 F476L mutant (Homo sapiens, UniProt P11712, F476L).
The target in data set [15] is T1, CYP2C9 F476W mutant. The source holds these as a separate data set.
Data set [16] deals with T7, CYP2C9 F476L mutant. The conditions noted are these: F476L.
The target of data set [17] is T2, CYP2C9 F100L mutant. The source holds these as a separate data set.
In data set [18] the target is T6, CYP2C9 F114L/F476L double mutant. The source holds these as a separate data set.
Substrate in data set [19]: CC(=O)C[C@@H](c1ccccc1)c1c(O)c2ccccc2oc1=O
Briefly: purified protein, by the assay type. The settings on record: other: WT; substrate hydroxylation; 37.0 °C.

Regarding `CC(=O)C[C@@H](c1ccccc1)c1c(O)c2ccccc2oc1=O` [(S)-warfarin, (S)-Warfarin], the “percent of wild-type kcat/Km” value came to 500% in [1]; 133% in data set [2]; 83% in [4]; 2% in data set [6]; 100% in data set [13]; 2% in data set [16]. The “percent of wild-type kcat/Km” value in data set [18] is 0.4%. In addition, the “ΔAmax (maximum observed difference 390–420 nm)” value in [3] is given as 12 ± 0.3 ×10^−3; in data set [7] it was 15 ± 0.3 ×10^−3; in data set [8] it was 10 ± 0.07 ×10^−3; in [11] it was 12 ± 0.2 ×10^−3; in data set [12], 5.3 ± 0.1 ×10^−3; in data set [14] it was 11 ± 0.2 ×10^−3. Moreover, the figures for the “ΔAmax (maximum observed difference 390–420 nm)” value in data set [15] and in data set [17] were 9.3 ± 0.1 ×10^−3 and 6.5 ± 0.06 ×10^−3, respectively. Besides, the “percent of wild-type ΔA/K” value in data set [3] (F114W) was 636%; in data set [7] (F114L/F476L), 75%; in data set [8] (F114L), 139%; in data set [11] (F114W/F476W) it was 303%; in data set [12] (Wild-type) it was 100%; in data set [15] (F476W), 225%. In addition, the “percent of wild-type ΔA/K” value in data set [17] (F100L) turned out to be 262%. Moreover, the “coupling of hydroxylation to NADPH consumption” value in data set [5] is ~ 4%. Moreover, the “distance from the heme to all ring protons” value in data set [9] is listed as 6–7 Å. The “distance from the heme to the acetonyl methyl group” value in data set [9] is ~ 9 Å. The “distance above the heme in crystal structure” value in data set [10] was ~ 10 Å.

B1: wild-type CYP2C9 (Homo sapiens) (protein)
chain: MALLLAVFLCLSCLLLLSLWRQSSGRGKLPPGPTPLPVIGNILQIGIKDISKSLTNLSKVYGPVFTLYFGLKPIVVLHGYEAVKEALIDLGEEFSGRGIFPLAERANRGFGIVFSNGKKWKEIRRFSLMTLRNFGMGKRSIEDRVQEEARCLVEELRKTKASPCDPTFILGCAPCNVICSIIFHKRFDYKDQQFLNLMEKLNENIKILSSPWIQICNNFSPIIDYFPGTHNKLLKNVAFMKSYILEKVKEHQESMDMNNPQDFIDCFLMKMEKEKHNQPSEFTIESLENTAVDLFGAGTETTSTTLRYALLLLLKHPEVTAKVQEEIERVIGRNRSPCMQDRSHMPYTDAVVHEVQRYIDLLPTSLPHAVTCDIKFRNYLIPKGTTILISLTSVLHDNKEFPNPEMFDPHHFLDEGGNFKKSKYFMPFSAGKRICVGEALAGMELFLFLTSILQNFNLKSLVDPKNLDTTPVVNGFASVPPFYQLCFIPV
Turning to B1, in [19], the Michaelis-Menten constant (Km) stood at 4.1 ± 0.3 µM, the kcat stood at 0.00417 ± 6.7e-05 s⁻¹ and the kcat/Km is listed as 0.06 (100) min^−1 μM^−1.
